The text below walks through data of US9731001B2, “Three-dimensional cavities of dendritic cell immunoreceptor (DCIR), compounds binding thereto and therapeutic applications related to inhibition of human immunodeficiency virus type-1 (HIV-1)” (priority 2011, dated 2017).

Molecules are shown by their SMILES. Entries after “also recorded” stand apart in the source; their conditions may differ.

Common to all, as to type: cell-based
For assay [1], the target named is T1, DCIR (Homo sapiens, UniProt Q9UMR7).
T1 construct: expressed in transfected cells; host or cells: Raji-CD4 (human B cell line stably expressing human CD4), retroviral transduction
T1 sequence (Q9UMR7 1-237): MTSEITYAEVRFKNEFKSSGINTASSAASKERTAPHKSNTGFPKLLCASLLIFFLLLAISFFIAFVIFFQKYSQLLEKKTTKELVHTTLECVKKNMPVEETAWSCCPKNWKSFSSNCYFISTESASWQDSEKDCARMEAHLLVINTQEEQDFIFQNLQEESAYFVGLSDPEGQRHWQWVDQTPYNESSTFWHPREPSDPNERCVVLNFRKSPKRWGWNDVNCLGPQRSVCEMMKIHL
Put plainly: HIV-1 binding/entry assay on Raji-CD4-DCIR cells (cell-associated p24). The note with it: 10 μM pre-treatment 10 min; NL4-3 60 min; p24 content. On the procedure:
FIG. 4 is a bar graph showing that inhibitors decrease HIV-1 binding on DCIR. Raji-CD4-DCIR cells were treated with 10 μM of four site A inhibitors (A1, A2, A3 and A4) and three site B inhibitors (B1, B2 and B3) (or with vehicle (DMSO) only) for 10 min at 37° C. Thereafter, cells were pulsed with NL4-3 for 60 min. After three washes with PBS to remove unadsorbed virus, the abundance of cell-associated viruses was quantified by measuring p24 content. Data shown correspond to the means±SEM of three independent experiments performed with triplicate samples. The asterisk (*) denotes statistically significant data (*, P<0.05, ** P<0.01, *** P<0.001).
(§1) Where indicated, 1×10^6 parental Raji-CD4 cells (DCIR-negative), Raji-CD4-DCIR or Raji-DC-SIGN transfectants were pre-treated with the indicated amount of a chemical inhibitor for 10 min. Cells were then pulsed with NL4-3 (an equivalent of 100 ng of p24) for 60 min at 37° C. The virus-cell mixture was then washed three times with PBS to remove unbound virus and re-suspended in PBS containing 1% BSA. Binding/entry was then determined by the p24 content by ELISA as above. For the infection assay, Raji-CD4 and Raji-CD4-DCIR (1×10^6 cells) were exposed to NL4-3 viral stock (100 ng of p24) for 2 h at 37° C. After three washes with PBS to remove excess virus, cells were maintained in culture for up to 9 days. Cell-free culture supernatants were collected at the indicated time points and assayed for p24 content.

Assay [2] relates to HIV-1 (NL4-3/Balenv). Kind of assay: HIV-1 binding assay on iMDDCs (p24). The note with it: IM-MDDCs, 10 μM pre-incubation 10 min, NL4-3balenv 60 min. On the procedure: (§2) FIG. 7 is bar graphs showing that selected site A and site B inhibitors decrease HIV-1 binding and infection of IM-MDDCs. Upper panel: IM-MDDCs were treated with two chemical inhibitors directed against site A (A1 and A4) and two inhibitors directed against site B (B1 and B2) (or DMSO) for 10 min at 37° C. Next, cells were pulsed with NL4-3balenv for 60 min at 37° C. and rinsed extensively before measuring p24 content. Lower panel: In some experiments, similarly treated IM-MDDCs were pulsed with NL4-3balenv for 2 h at 37° C., rinsed extensively, and maintained in complete culture medium supplemented with GM-CSF and IL-4 for up to 9 days with medium replenishment every 3 days. Cell-free culture supernatants were quantified by measuring p24 content. Data shown correspond to the means±SEM of 3 independent experiments performed in triplicate. The asterisks denotes statistically significant data (*, P<0.05; **, P<0.01; ***, P<0.001).
(§3) For assessing binding/entry, iMDDCs (3×10^5 cells in a final volume of 300 μl) were pre-treated with 10 μM of different chemical inhibitors for 10 min and exposed to NL4-3/Balenv (30 ng of p24) for 60 min at 37° C. After three washes with PBS, cells were re-suspended in PBS containing 1% BSA. The p24 content was determined by ELISA, while susceptibility of iMDDCs to HIV-1 infection was assessed by initially exposing 3×10^5 cells to NL4-3/Balenv (30 ng) at 37° C. for 2 h. After three washes with PBS, cells were maintained in complete RPMI 1640 supplemented with GM-CSF and IL-4 in 96-well plates, in a final volume of 200 μl. Every 3 days and for a 9-day period, half of the conditioned medium was collected and kept at −20° C. until assayed. Virus production was estimated as above by measuring p24 levels by ELISA.

In assay [3] the test system is HIV-1 (NL4-3). Kind of assay: HIV-1 infection assay on Raji-CD4 and Raji-CD4-DCIR cells (p24 in supernatant). Conditions: Raji-CD4 vs Raji-CD4-DCIR, NL4-3 2 h, culture 3 d. On the procedure: FIG. 5 is a bar graph showing that specific inhibitors against the site A (A1, A4) and site B (B1, B2) decrease infectivity of Raji-CD4-DCIR. Raji-CD4 and Raji-CD4-DCIR were treated with the inhibitors selected following experiments described in FIG. 4, or DMSO. Cells were then exposed to NL4-3 for 2 h, rinsed and maintained in culture for 3d. Cell-free culture supernatants were collected and assayed for p24 content. Data shown correspond to the means±SEM from 3 independent experiments performed with triplicate samples. The asterisk (*) denotes statistically significant data (*, P<0.05, ** P<0.01, *** P<0.001).
as §1

Assay [4] concerns HIV-1 (NL4-3/Balenv). Kind of assay: HIV-1 infection assay on iMDDCs (p24 in supernatant). Conditions: IM-MDDCs, NL4-3balenv 2 h, culture up to 9 days. On the procedure: as §2, §3
Assay [5] concerns the target T2, DC-SIGN (Homo sapiens, UniProt Q9NNX6).
T2 construct: expressed in transfected cells; host or cells: Raji cells stably transfected with a DC-SIGN plasmid
T2 sequence (Q9NNX6 1-404): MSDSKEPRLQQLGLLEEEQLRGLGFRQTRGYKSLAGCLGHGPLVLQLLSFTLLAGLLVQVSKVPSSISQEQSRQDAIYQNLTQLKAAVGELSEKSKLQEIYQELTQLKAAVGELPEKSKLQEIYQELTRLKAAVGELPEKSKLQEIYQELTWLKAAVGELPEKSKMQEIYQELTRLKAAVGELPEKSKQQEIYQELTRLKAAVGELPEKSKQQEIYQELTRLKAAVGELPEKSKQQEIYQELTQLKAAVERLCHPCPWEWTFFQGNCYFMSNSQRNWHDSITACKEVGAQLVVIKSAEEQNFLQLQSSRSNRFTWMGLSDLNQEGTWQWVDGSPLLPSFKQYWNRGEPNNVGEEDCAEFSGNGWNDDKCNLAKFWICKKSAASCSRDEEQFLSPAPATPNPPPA
Kind of assay: HIV-1 binding to Raji-DC-SIGN cells (p24). Conditions: NL4-3 60 min. On the procedure: Raji-DC-SIGN cells were treated for 10 min at 37° C. with inhibitors A1 and A4 directed against the site A and B1 and B2 directed against the site B, or with DMSO. Afterwards, cells were pulsed with NL4-3 for 60 min, rinsed thrice with PBS were made to remove unadsorbed virus, and cell-associated viruses were quantified by measuring p24 content. Data shown correspond to the means±SEM of 3 independent experiments performed in triplicate.
as §1

Regarding `O=C(c1ccccc1)c1cc2ccccc2o1` [Compound B1, 1-benzofuran-2-yl(phenyl)methanone], in assay [1], the “HIV-1 attachment to Raji-CD4-DCIR cells” value is listed as “statistically significant decrease; also recorded: proved active against HIV-1 binding”. Moreover, in assay [2], the “HIV-1 binding to DCs” value is “decreased significantly”. In addition, the HIV-1 production entry in assay [3] was “decreased HIV-1 production only in DCIR-expressing cells”. In assay [4], the “productive infection of DCs” value is reported as “blocked productive infection”. Besides, the “HIV-1 binding to DC-SIGN” value in assay [5] was “do not block HIV-1 attachment to DC-SIGN”.

Consider `Cc1ccc(/N=[N+](\[O-])c2ccc(C)cc2)cc1` [Compound B2, 1-methyl-4-[(4-methylphenyl)-NNO-azoxy]benzene], for which the “HIV-1 attachment to Raji-CD4-DCIR cells” value in assay [1] is reported as “statistically significant decrease”. Moreover, the “HIV-1 binding to DCs” value in assay [2] was “decreased significantly”. Besides, in assay [3], the HIV-1 production result is on record as “decreased HIV-1 production only in DCIR-expressing cells”. The “productive infection of DCs” value in assay [4] was “blocked productive infection”. The “HIV-1 binding to DC-SIGN” value in assay [5] was “do not block HIV-1 attachment to DC-SIGN”.

As to `O=C(/C=C/C=C/c1ccccc1)c1ccccc1` [Compound A1, 1,5-diphenyl-2,4-pentadien-1-one], the “HIV-1 attachment to Raji-CD4-DCIR cells” value in assay [1] was “statistically significant decrease; also recorded: proved active against HIV-1 binding”. For the same molecule, the “HIV-1 binding to DCs” value in assay [2] is on record as “decreased significantly”. The HIV-1 production result in assay [3] was “decreased HIV-1 production only in DCIR-expressing cells”. Besides, the “productive infection of DCs” value in assay [4] was “blocked productive infection”. For the same molecule, in assay [5], the “HIV-1 binding to DC-SIGN” value is on record as “do not block HIV-1 attachment to DC-SIGN”.
